Active and inactive are the calls of the source. The rule behind the calls is not given here.
Assays:
MDA-MB-231 [1] = test: cells; format: functional; conditions: Homo sapiens, MDA-MB-231, 72 h; time 3 day
Description: Antiproliferative activity against human MDA-MB-231 cells assessed as inhibition of cell growth incubated for 3 days by alamar blue assay

NCI-H526 = test: cells; format: functional; conditions: Homo sapiens, NCI-H526, 72 h; time 3 day
Description: Antiproliferative activity against human NCI-H526 cells assessed as inhibition of cell growth incubated for 3 days by alamar blue assay

[2] = molecular target: T1, Lysine-specific histone demethylase 1A (Homo sapiens, UniProt O60341)
Description: Inhibition of LSD1 (unknown origin) using H3K4me2 peptide as substrate preincubated for 15 mins followed by substrate addition and measured after 30 mins by fluorescence based analysis

[3] = molecular target: T1, Lysine-specific histone demethylase 1A; test: Potency index, ratio of phenylcyclopropylamine IC50 to test compound IC50 for inhibition of LSD1 (unknown origin) using H3K4me2 peptide as substrate preincubated for 15 mins followed by substrate addition and measured after 30 mins by fluorescence based analysis; conditions: time 45.0 min
[4] = Stability of compound in buffer at pH 7.4; format: physicochemical
in vitro [5] = conditions: human, HMEC cells
Description: Cytotoxicity against HMEC cells assessed as inhibition of cell growth incubated for 3 days by alamar blue assay

in vitro [6] = conditions: human, HMEC cells versus MDA-MB-231 cells
Description: Selectivity index, ratio of IC50 for cytotoxicity against HMEC cells to GI50 for antiproliferative activity against human MDA-MB-231 cells

[7] = molecular target: T1, Lysine-specific histone demethylase 1A; test: Prodrug conversion assessed as LSD1 (unknown origin)-mediated vorinostat release incubated for 24 hrs by HPLC analysis; format: ADME
[8] = Stability of compound in HEPES buffer at pH 7.4 at 100 uM incubated for 24 hrs by HPLC analysis; format: physicochemical; conditions: pH 7.4, 24 h
MDA-MB-231 [9] = test: Synergistic antiproliferative activity against human MDA-MB-231 cells assessed as inhibition of cell growth incubated for 3 days in presence of vorinostat by alamar blue assay; format: functional, cell-based; conditions: time 3.0 day
[10] = molecular target: Histone deacetylase 1 (Homo sapiens) (UniProt Q13547); test: Inhibition of HDAC1 in human NCI-H526 cells assessed as increase in H3K9 acetylation at 16 uM measured after 24 to 72 hrs by Western blot analysis; format: cell-based; conditions: time 24-72 hrs
Chain of Histone deacetylase 1 (Homo sapiens) (Q13547 whole entry): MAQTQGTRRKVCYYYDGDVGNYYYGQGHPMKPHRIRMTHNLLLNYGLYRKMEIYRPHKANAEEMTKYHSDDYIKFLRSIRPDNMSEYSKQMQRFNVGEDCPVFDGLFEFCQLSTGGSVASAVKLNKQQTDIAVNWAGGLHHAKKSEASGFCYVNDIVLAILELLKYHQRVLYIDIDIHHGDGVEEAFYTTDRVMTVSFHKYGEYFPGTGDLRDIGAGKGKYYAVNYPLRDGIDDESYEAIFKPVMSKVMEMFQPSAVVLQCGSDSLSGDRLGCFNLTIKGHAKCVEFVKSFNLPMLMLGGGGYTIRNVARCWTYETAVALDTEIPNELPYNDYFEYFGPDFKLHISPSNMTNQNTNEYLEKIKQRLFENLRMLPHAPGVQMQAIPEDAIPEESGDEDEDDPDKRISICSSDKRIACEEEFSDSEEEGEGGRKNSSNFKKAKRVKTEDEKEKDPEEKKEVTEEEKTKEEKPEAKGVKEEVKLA

MDA-MB-231 [11] = test: Additive antiproliferative activity against human MDA-MB-231 cells assessed as inhibition of cell growth incubated for 3 days in presence of 4-(Chloromethyl)phenyl acetate by alamar blue assay; format: functional, cell-based; conditions: time 3.0 day
[12] = molecular target: Histone deacetylase 1 (Homo sapiens) (UniProt Q13547); test: Potency index, ratio of vorinostat IC50 to test compound IC50 for inhibition of HDAC1 human NCI-H526 cells measured after 24 to 72 hrs by Western blot analysis; format: cell-based; conditions: time 24-72 hrs
[13] = molecular target: Histone deacetylase 1 (Homo sapiens) (UniProt Q13547); test: Inhibition of HDAC1 in human NCI-H526 cells assessed as increase in H3K4 methylation at 16 uM measured after 24 to 72 hrs by Western blot analysis; format: cell-based; conditions: time 24-72 hrs
MDA-MB-231 [14] = test: Synergistic antiproliferative activity against human MDA-MB-231 cells assessed as inhibition of cell growth incubated for 3 days in presence of LSD1 inhibitor, NCD38 by alamar blue assay; format: functional, cell-based; conditions: time 3.0 day
in vitro [15] = conditions: human, HMEC cells versus NCI-H526 cells
Description: Selectivity index, ratio of IC50 for cytotoxicity against HMEC cells to GI50 for antiproliferative activity against human NCI-H526 cells

| Compound | GI50 (MDA-MB-231 [1]) [nM] | GI50 (NCI-H526) [nM] | IC50 [2] [nM] | IC50 at 3 days (in vitro [5]) [nM] | selectivity ratio (in vitro [6]) | other results |
| --- | --- | --- | --- | --- | --- | --- |
| CC(=O)Oc1ccc(CCl)cc1 | 2050 | 2020 |  |  |  |  |
| CN(CCN(C)C1CC1c1ccccc1)C(=O)Oc1ccc(CONC(=O)CCCCCCC(=O)Nc2ccccc2)cc1 (centres undefined) | 34300 |  | 1290 | > 100000 | > 2.92 | Ratio IC50 [3]: 19; Stability [4]: Stable; Drug metabolism [7]: Metabolite_Detected |
| CNC(=O)c1cccc(-c2ccc([C@@H]3C[C@H]3N(C)CCN(C)C(=O)Oc3ccc(CONC(=O)CCCCCCC(=O)Nc4ccccc4)cc3)cc2)c1 |  |  | 444 |  |  |  |
| CNC(=O)c1cccc(-c2ccc([C@H]3C[C@@H]3N(C)CCN(C)C(=O)Oc3ccc(CONC(=O)CCCCCCC(=O)Nc4ccccc4)cc3)cc2)c1 |  |  | 457 |  |  |  |
| CN(CCN(C)C1CC1c1ccccc1)C(=O)ONC(=O)CCCCCCC(=O)Nc1ccccc1 (centres undefined) |  |  |  |  |  | Stability [8]: Unstable |
| CNC(=O)c1cccc(-c2ccc(C3CC3N(C)CCN(C)C(=O)Oc3ccc(CONC(=O)CCCCCCC(=O)Nc4ccccc4)cc3)cc2)c1 (racemic) | 4490 | 1000 | 126 | > 100000 | > 22.3 | Activity (MDA-MB-231 [9]): Active; inhibition [10]: Active; Activity (MDA-MB-231 [11]): Active; Ratio IC50 [12]: 40; inhibition [13]: Active; Activity (MDA-MB-231 [14]): Active; selectivity ratio (in vitro [15]): > 100 |
